From patent US20250302768A1, “NANOPARTICLE DOPED POLYETHYLENE GLYCOL BASED GELS AND MEDICAL DEVICES FOR DRUG DELIVERY” (priority 2022, published 2025)

Assays:
[1] = drug elution from cured MAPLAPEG gel strips in phosphate buffered saline; format: physicochemical; settings: eluted from MAPLAPEG polymers; 250 mg gel strip in 5 ml phosphate buffered saline; sampled 0.25 to 28 days; n=4
Experimental: Methacrylated poly(lactic acid-co-ethylene glycol) (MAPLAPEG) macromers were synthesized with microwave synthesis with a lactate degree of polymerization (DP) of 4 and PEG400 (DP 9.5). Chitosan nanoparticles (CNP) were synthesized using ionic gelation and ketorolac tromethamine was loaded into the CNPs. For polymerization, the MAPLAPEG macromers were mixed with 10 mg/mL Phenylbis(2,4,6-trimethylbenzoyl) phosphine oxide initiator at a ratio of 1 μL each 20 μL of macromer and exposed to UV radiation at 395 nm for two minutes to form a 250 mg gel strip with the dimensions of 5 mm×3 mm×20 mm. The test groups were formed as follows: (1) gel and antibiotic; (2) gel loaded with antibiotic and CNPs; (3) gel loaded with antibiotic and (4) gel and ketorolac loaded CNPs. Gels loaded with only ketorolac loaded CNPs were used as controls for ketorolac elution. […] Eluent concentrations were measured using UV visible spectrometry. Gentamicin sulfate samples were treated with O-phthalaldehyde and the fluorescence was measured after complexation.
FIGS. 1A-1C depict the release rates of vancomycin, gentamicin and ketorolac from the gels loaded only with antibiotics and those loaded also with particles and those loaded with particles containing ketorolac. […] The sample size for each group was four and standard deviation was calculated for each sample group.

Staphylococcus aureus = settings: reference values the eluted concentrations are compared with; cited from earlier work

CN[C@H](CC(C)C)C(=O)N[C@H]1C(=O)N[C@@H](CC(N)=O)C(=O)N[C@H]2C(=O)N[C@H]3C(=O)N[C@H](C(=O)N[C@H](C(=O)O)c4cc(O)cc(O)c4-c4cc3ccc4O)[C@H](O)c3ccc(c(Cl)c3)Oc3cc2cc(c3O[C@@H]2O[C@H](CO)[C@@H](O)[C@H](O)[C@H]2O[C@H]2C[C@](C)(N)[C@H](O)[C@H](C)O2)Oc2ccc(cc2Cl)[C@H]1O [Vancomycin, vancomycin]
time eluted concentration maintained above the MIC [1]: 4 weeks | minimum inhibitory concentration (MIC) (Staphylococcus aureus): 0.5 to 2 µg/mL

gentamicin
time eluted concentration maintained above the MIC [1]: 4 weeks | minimum inhibitory concentration (MIC) (Staphylococcus aureus): 1.5 to 3 µg/mL
